The text below walks through data of publication PMC4474691, “Leukemia-Associated Mutations in Nucleophosmin Alter Recognition by CRM1: Molecular Basis of Aberrant Transport” (PLoS ONE, 2015).

Assay [1] has as its system nuclear export. As to conditions: in vivo nuclear export assay; cited from earlier work. From the text: Two sequence motifs in the core domain of NPM (residues 42–61 and 94–102) (Fig 1) have been investigated as candidate NESs. In addition, we have detected a further putative NES in the C-terminal region (see below). However, it is still unclear to what extent any of these sequences represents NPM physiological NESs. […] It is therefore not surprising that NPM deregulation is associated to cancer. NPM is overexpressed in several solid tumors (such as gastric, colon, ovarian, prostate cancer). In addition, small insertions and translocations affecting NPM1 gene, encoding NPM, are characteristic of certain hematological disorders. In fact, NPM1 is the most frequently mutated gene in adult acute myeloid leukemia (AML). […] The higher affinity of mutE(NES) for CRM1^HA is consistent with its stronger export activity previously observed using in vivo nuclear export assays. […] Thus, the ranking of in vitro CRM1^HA affinity (PKI(NES) (KD 579 n ...

Assay [2] relates to Myc-NPM in HEK293T cells. Nature of the assay: Localization of Myc-NPM in HEK293T cells. The format is cell-based, human. As to conditions: YFP-CRM1 co-expression and ActD (5 μg/mL, 3 h), >200 cells counted. On the procedure: (§1) Cell culture, transfection, treatment and imaging
(§2) Human embryonic kidney 293T (HEK293T) and HeLa cells (ECACC) were grown in Dulbecco’s modified Eagle’s medium, supplemented with 10% fetal bovine serum, 100 units/ml penicillin and 100 μg/ml streptomycin (all from Invitrogen). The cells were seeded onto sterile glass coverslips in 12-well trays 24 h before transfection. Transfections were carried out with XtremeGENE 9 (Roche) following the manufacturer’s protocol. Treatment of cells with the different drugs was done at the indicated final concentrations and time periods: Actinomycin D (ActD, Sigma) at 5 μg / mL for 3 h, and hydroxyurea (HU, Sigma) at 4 mM for 24 h.
Cells were fixed, either 20 or 42 h after transfection, with 3.7% formaldehyde in PBS for 30 min, then treated with 0.2% Triton X-100 in PBS for 10 min, for membrane permeabilization and incubated for 1 h in blocking solution (3% BSA in PBS). In YFP-CRM1 overexpression experiments, endogenous NPM was detected with anti-B23 (Santa Cruz Biotechnology FC82291, dilution 1:800), Myc3-NPM with anti-Myc (Cell Signalling 2276, dilution 1:2000) and Flag-SurvNLS with anti-Flag (Sigma F1704, dilution 1:300). Primary antibodies were diluted in blocking solution. In all cases, the secondary antibody was Alexa Fluor 594 anti-mouse (Invitrogen A11005, dilution 1:400). […] Slides were examined using a Zeiss Axioskop fluorescence microscope. […]

For assay [3], the system named is endogenous NPM in HEK293T cells. Nature of the assay: Localization of endogenous NPM in HEK293T cells. The format is cell-based, human. On the procedure:
as §1, §2
Cells were fixed, either 20 or 42 h after transfection, with 3.7% formaldehyde in PBS for 30 min, then treated with 0.2% Triton X-100 in PBS for 10 min, for membrane permeabilization and incubated for 1 h in blocking solution (3% BSA in PBS). In YFP-CRM1 overexpression experiments, endogenous NPM was detected with anti-B23 (Santa Cruz Biotechnology FC82291, dilution 1:800), Myc3-NPM with anti-Myc (Cell Signalling 2276, dilution 1:2000) and Flag-SurvNLS with anti-Flag (Sigma F1704, dilution 1:300). Primary antibodies were diluted in blocking solution. In all cases, the secondary antibody was Alexa Fluor 594 anti-mouse (Invitrogen A11005, dilution 1:400). Washing between the different steps were carried out with PBS. […] Slides were examined using a Zeiss Axioskop fluorescence microscope. For quantification, at least 200 cells were “blind counted” and classified as having nuclear (or nucleolar), nuclear/cytoplasmic or cytoplasmic localization of NPM (or the Flag-SurvNLS control). […]
Fig 2 Localization of endogenous and ectopically expressed NPM and effect of treatment with actinomycin D (ActD) and CRM1 overexpression in HEK293T cells. […] Green denotes YFP (Y) or YFP-CRM1 (YC) fluorescence; red, immunostaining of endogenous NPM; and blue, DAPI fluorescence. […] More than 200 cells were “blind” counted. […] (D) Quantification of cytoplasmic (C) or nuclear and cytoplasmic (N/C) localization of overexpressed Flag-SurvNLS and Myc-NPM. […]

In assay [4] the target is T1, CRM1^HA (Mus musculus, UniProt Q6P5F9, L431A/V430A/V432A).
T1 construct: His-ZZ (cleaved yes); made in house; host or cells: Escherichia coli BL21-CodonPlus (DE3)
T1 sequence (Q6P5F9 1-1062 V430A/L431A/V432A limits assumed): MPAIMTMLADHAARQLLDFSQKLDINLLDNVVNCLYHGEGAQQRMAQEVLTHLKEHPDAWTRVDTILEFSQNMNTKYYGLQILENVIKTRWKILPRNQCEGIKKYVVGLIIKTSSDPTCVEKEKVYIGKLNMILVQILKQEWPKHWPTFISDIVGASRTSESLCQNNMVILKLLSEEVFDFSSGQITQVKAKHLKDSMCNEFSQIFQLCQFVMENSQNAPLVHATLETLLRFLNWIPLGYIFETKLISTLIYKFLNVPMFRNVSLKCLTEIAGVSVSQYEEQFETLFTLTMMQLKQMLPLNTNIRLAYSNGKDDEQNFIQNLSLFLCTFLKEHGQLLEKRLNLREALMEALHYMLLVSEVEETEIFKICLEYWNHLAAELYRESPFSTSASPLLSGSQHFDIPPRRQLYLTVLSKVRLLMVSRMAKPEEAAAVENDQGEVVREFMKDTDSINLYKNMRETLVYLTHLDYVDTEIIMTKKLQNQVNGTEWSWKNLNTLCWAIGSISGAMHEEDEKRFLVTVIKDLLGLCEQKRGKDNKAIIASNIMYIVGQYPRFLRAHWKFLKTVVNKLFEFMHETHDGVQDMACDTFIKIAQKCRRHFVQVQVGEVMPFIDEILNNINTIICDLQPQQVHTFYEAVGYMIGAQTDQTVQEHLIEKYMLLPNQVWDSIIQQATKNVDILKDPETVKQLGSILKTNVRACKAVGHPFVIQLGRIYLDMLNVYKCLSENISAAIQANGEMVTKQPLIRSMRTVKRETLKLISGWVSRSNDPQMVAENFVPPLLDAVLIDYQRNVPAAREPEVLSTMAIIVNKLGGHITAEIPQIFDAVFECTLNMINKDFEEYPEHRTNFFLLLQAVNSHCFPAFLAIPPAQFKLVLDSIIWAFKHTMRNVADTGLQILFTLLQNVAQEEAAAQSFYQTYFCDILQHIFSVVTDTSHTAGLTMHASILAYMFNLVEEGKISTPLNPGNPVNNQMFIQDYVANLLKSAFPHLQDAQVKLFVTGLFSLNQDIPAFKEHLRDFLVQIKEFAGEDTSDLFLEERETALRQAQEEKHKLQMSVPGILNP
Nature of the assay: Isothermal titration calorimetry, CRM1^HA / NES. The format is binding. As to conditions: for binding response: titrated onto CRM1^HA, result in words. On the procedure:
Isothermal titration calorimetry (ITC)
ITC measurements were carried out using a VIP-ITC MicroCalorimeter (MicroCal, Inc., Northampton, MA). TFP and YFP constructs, as well as CRM1^HA, were dialyzed in a buffer containing 20 mM HEPES, pH 7.4, 50 mM NaCl, 1 mM TCEP, 1 mM MgCl2, and degassed prior to the experiment. Untagged peptides (AS: QDLCLAVEEVSLRK, AL: EAIQDLCLAVEEVSLRK, ES: QDLWQSLAQVSLRK and EL: EAIQDLWQSLAQVSLRK), N-acetylated and 95% pure, were purchased from Proteogenix (Schiltigheim, France) and resuspended in the ITC buffer. Measurements were performed at 20°C. TFP-NES, YFP-NES or NES peptides at 35–180 μM were titrated onto CRM1^HA at 2–14 μM. Injections of 6 μL were performed at 320 seconds interval (the first injection always was of 1 μL and is not considered in data analysis). To determine the thermodynamic parameters of NPM / importin interaction, importin α, importin Δα or importin α/β at 45–60 μM were titrated onto NPM (1–1.2 μM pentamer) in 50 mM Tris/HCl, pH 7.5, 100 mM NaCl, 2 mM TCEP, and 10% glycerol. […] “Reverse” titrations, where 20–30 μM NPM was titrated onto 7–10 μM of the different importins were also performed and yielded similar results.
The reaction heat of each injection is related to the calorimetric enthalpy of binding, ΔH^0. The binding isotherms, ΔH^0 vs. molar ratio, were analyzed with an independent binding sites model using MicroCal Origin software. The fit of the binding curve yields the binding constant KA (KD = 1/KA) and the enthalpy ΔH^0 of the binding reaction. The Gibbs free energy of binding ΔG^0 and the entropy ΔS^0 are determined from the basic thermodynamic expressions: ΔG^0 = -RTlnKA = ΔH^0−TΔS^0, where R and T are the gas constant and the absolute temperature, respectively.
Fig 5 Analysis of CRM1^HA/TFP-NES interaction by ITC. Isothermal titration of CRM1^HA with TFP-mutE(NES). […] The titration of negative control TFP-Cter (180 μM) onto CRM1^HA (14 μM) (circles) is also shown for comparison.

Assay [5] has as its target T1, CRM1^HA. Nature of the assay: Fluorescence anisotropy binding assay, CRM1^HA. As to conditions: 0–60 μM CRM1^HA, 25°C. On the procedure: Fluorescence anisotropy binding assays
To estimate CRM1 binding affinities for NES motifs we monitored binding with a fluorescence-polarization assay based on previously described approaches. The increase in fluorescence anisotropy of TFP/YFP when the TFP/YFP-NES construct (50 nM) binds to 0–60 μM CRM1 (either CRM^HA or wild type) was recorded at 25°C with a 8100 SLM-Aminco spectrofluorometer in buffer 20 mM Tris/HCl, pH 7.4, 50 mM NaCl, 5 mM DTT, 2 mM MgCl2. Excitation and emission wavelengths were 463, 500 nm for TFP and 463, 533 nm for YFP, and slits width 4 and 8 nm, respectively.
Fig 4 Binding of CRM1 to TFP-NES constructs. (A) Scheme of the engineered TFP constructs, showing the sequence of the NES motifs. Φ residues are highlighted in red. (B) Titration of CRM1 onto the different TFP constructs (50 nM), at 25°C, in buffer 20 mM Tris/HCl, pH 7.4, 50 mM NaCl, 5 mM DTT, 2 mM MgCl2: Left panel: Binding of CRM1^HA (solid symbols) or wild type CRM1 (empty symbols) to TFP-PKI(NES). Right panel: Binding of CRM1^HA to TFP-mutE(NES) (triangles) and TFP-mutA(NES) (squares). Fraction bound was calculated from the relative increase in fluorescence anisotropy of TFP (λexc 463 nm, λem 500 nm). Error bars correspond to at least three measurements per CRM1 concentration.
We next used the TFP-(NES) constructs to monitor CRM1^HA binding to each motif, using the change in fluorescence anisotropy upon complex formation as a readout (Fig 4B), as previously described. […] The different nature of the fluorescent tag, and/or the linker between the fluorescent protein and the NES (2 residues longer in the YFP-PKI construct) could explain the discrepancy. […] To isolate the CRM1 / NES interaction under study from the influence of the tag protein, we have also conducted binding assays with peptides corresponding to the NES motifs (see below).
For orientation: Polarisation of emitted light reports the rotation of a fluorescent probe.

Where [6] appears, read: ITC, NES ligand (35–180 μM) titrated onto CRM1^HA (2–14 μM), 20°C, 20 mM HEPES pH 7.4, 50 mM NaCl, 1 mM TCEP, 1 mM MgCl2, independent binding sites model, read-out: KD.
[7] abbreviates: TFP/YFP-NES construct 50 nM, 20 mM Tris/HCl pH 7.4, 50 mM NaCl, 5 mM DTT, 2 mM MgCl2, at least three measurements per CRM1 concentration, read-out: apparent KD (C50).

*1 amine or outer side, *2 acyl side, *3 side chain or, on linkers, in order; H or OH if unused. Where a SMILES comes first, the peptide text is derived from it. Bridges are numbered along the chain shown (N, C = ends). Roman numbers before positions name the chains, in order. Where no end group is shown, it is not given here. [ ]: non-standard residue; d: D form. Actinocin(9to1) = Cc1c2oc3c(C)ccc(C(=O)[*:1])c3nc-2c(C(=O)[*:2])c(N)c1=O; NMeV = CN[C@H](C(=O)O)C(C)C; Sar = CNCC(=O)O

On to “94–102: candidate NES motif in the core domain of NPM (ITPPVVLRL; UniProt P06748 94-102, looked up, fragment)”, for which the “NES export activity in cells” value in assay [1] is on record as “border-line activity”. As for `Cc1c2oc3c(C)ccc(C(=O)N[C@@H]4C(=O)N[C@H](C(C)C)C(=O)N5CCC[C@H]5C(=O)N(C)CC(=O)N(C)[C@@H](C(C)C)C(=O)O[C@@H]4C)c3nc-2c(C(=O)N[C@@H]2C(=O)N[C@H](C(C)C)C(=O)N3CCC[C@H]3C(=O)N(C)CC(=O)N(C)[C@@H](C(C)C)C(=O)O[C@@H]2C)c(N)c1=O` [ActD, actinomycin D] (I: T[dV]P[Sar][NMeV] / II: T[dV]P[Sar][NMeV]; ester I:1-I:C, II:1-II:C; linker I:N-II:N via Actinocin(9to1)), in assay [2], the “cells with nuclear/cytoplasmic localization of Myc-NPM” value was 33%. In assay [3] (HEK293T expressing YFP-CRM1, ActD 5 μg/mL 3 h where ActD), the “cytoplasmic localization of endogenous NPM” value is on record as “a further increase was observed”. Also, in assay [3] (YFP-transfected HEK293T, ActD 5 μg/mL 3 h, no CRM1 overexpression), the “nuclear/cytoplasmic localization of endogenous NPM” value is reported as “does not affect, however, the amount of cells displaying nuclear/cytoplasmic localization of NPM”. As to Ac-EAIQDLCLAVEEVSLRK [peptide AL], the Kd in assay [4] was determined as 57 ± 10 nM.

Ac-EAIQDLWQSLAQVSLRK [peptide EL]: the Kd in assay [4] (setting [6]) amounted to 31 ± 1 nM.

Turning to Ac-QDLWQSLAQVSLRK [peptide ES], the Kd in assay [4] (setting [6]) turned out to be 76 ± 1 nM. As for “DLWQSLAQVSLRK [TFP-mutE(NES), NES of NPM mutant E as C-terminal fusion to teal fluorescent protein]”, the Kd in assay [4] (setting [6]) turned out to be 1040 ± 41 nM; in assay [4] (ITC, TFP-NES titrated onto CRM1^HA, 20°C, 20 mM HEPES pH 7.4, rounded, read-out: KD), 1000 nM; in assay [5] (TFP-NES 50 nM, pH 7.4, rounded, read-out: apparent KD), 2200 nM; in assay [5] (setting [7]), 2160 ± 556 nM. In addition, the ΔH in assay [4] (ITC, NES ligand titrated onto CRM1^HA, 20°C, 20 mM HEPES pH 7.4) is -15.4 ± 3.1 kcal/mol. Also, the “-TΔS” value in assay [4] (ITC, NES ligand titrated onto CRM1^HA, 20°C, 20 mM HEPES pH 7.4, from ΔG = ΔH − TΔS) amounted to 7.4 ± 3.1 kcal/mol. For the same compound, the “n (binding stoichiometry)” value in assay [4] (ITC, NES ligand titrated onto CRM1^HA, 20°C, 20 mM HEPES pH 7.4, low n of peptides might result from limited solubility) stood at 0.80 ± 0.19. Also, in assay [4] (ITC, NES ligand titrated onto CRM1^HA, 20°C, 20 mM HEPES pH 7.4, ΔG = -RTlnKA), the ΔG is -8.0 ± 0.0 kcal/mol. In the case of “DLWQSLAQVSLRK [mutE(NES), acquired NES motif of AML-associated NPM mutant E]”, in assay [1], the “NES export activity in cells” value was “much higher than that of mutant A NES, and comparable to the export activity of PKI(NES)”. The “relative affinity for CRM1^HA, mutant E NES vs mutant A NES” value in assay [4] (anisotropy, ITC with TFP constructs and ITC with untagged peptides) is given as “approximately double that of mutant A”. Regarding “DLWQWRKSL [TFP-Cter, negative control construct containing the last 9 C-terminal residues of wild type NPM]”, the binding response result in assay [4] (ITC, 20°C, 20 mM HEPES pH 7.4) is “small exothermic peaks (Fig 5), which may reflect a non-specific binding”. For the compound “LALKLAGLDI [PKI(NES), in b48 the value is that of TFP-PKI(NES), reference compound]”, in assay [5] (setting [7]), the Kd was determined as 579 nM. Turning to “QDLCLAVEEVSLRK [peptide AS, short version of the NES motif of mutant A]”, the binding response entry in assay [4] (ITC, 20°C, 20 mM HEPES pH 7.4) is listed as “showed no binding in our conditions”. In the case of “residues 42–49: candidate NES motif in the core domain of NPM (LSLRTVSL; UniProt P06748 42-49, looked up, fragment)”, the “NES export activity in cells” value in assay [1] was “border-line activity”.
